According to ChEMBL document CHEMBL1136616, “Carbonic anhydrase inhibitors: SAR and X-ray crystallographic study for the interaction of sugar sulfamates/sulfamides with isozymes I, II and IV” (Bioorg Med Chem Lett, 2003):

molecular target: Carbonic anhydrase 2 (Homo sapiens, UniProt P00918)
Description: Inhibitory activity against human cloned carbonic anhydrase II (hCA II)

Ki [µM] | Structure (SMILES)
21 | CC1(C)OC[C@@H]2O[C@@]3(C(=O)NNS(N)(=O)=O)OC(C)(C)O[C@H]3[C@@H]2O1
> 100 | CC1(C)O[C@@H]2[C@@H](CO[C@@]3(C(=O)NS(N)(=O)=O)OC(C)(C)O[C@@H]23)O1
> 100 | CC1(C)O[C@@H]2[C@@H](CO[C@@]3(C(=O)NNS(N)(=O)=O)OC(C)(C)O[C@@H]23)O1
0.071 | CC1(C)OC[C@@H]2O[C@@]3(COC(=O)NS(N)(=O)=O)OC(C)(C)O[C@H]3[C@@H]2O1
13 | CC1(C)O[C@@H]2O[C@@H](COS(N)(=O)=O)[C@H]3OC(C)(C)O[C@H]3[C@@H]2O1

Second part, the compound before the results:

Structure (SMILES) | Ki [µM]
CC1(C)O[C@H]2[C@@H](O1)[C@@H](C(=O)NNS(N)(=O)=O)O[C@@H]1OC(C)(C)O[C@@H]12 | 15
CC1(C)OC[C@@H]2O[C@@]3(C(=O)NS(N)(=O)=O)OC(C)(C)O[C@H]3[C@@H]2O1 | 0.068
CC1(C)O[C@@H]2[C@@H](CO[C@@]3(COC(=O)NS(N)(=O)=O)OC(C)(C)O[C@@H]23)O1 | 0.024
CC1(C)O[C@@H]2O[C@@H](C(=O)NS(N)(=O)=O)[C@H]3OC(C)(C)O[C@H]3[C@@H]2O1 | 25

molecular target: T1, Carbonic anhydrase 4 (Bos taurus, UniProt Q95323)
T1 sequence (Q95323 whole entry): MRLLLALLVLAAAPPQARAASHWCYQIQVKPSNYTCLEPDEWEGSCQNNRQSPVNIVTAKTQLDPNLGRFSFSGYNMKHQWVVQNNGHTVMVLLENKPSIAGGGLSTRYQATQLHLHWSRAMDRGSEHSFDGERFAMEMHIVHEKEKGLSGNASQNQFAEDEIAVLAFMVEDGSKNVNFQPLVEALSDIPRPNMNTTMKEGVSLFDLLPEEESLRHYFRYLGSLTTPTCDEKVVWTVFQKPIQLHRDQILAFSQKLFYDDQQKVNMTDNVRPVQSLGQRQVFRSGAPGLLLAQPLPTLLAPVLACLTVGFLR
Description: Inhibitory activity against carbonic anhydrase isolated from bovine lung microsome (bCA IV)

Ki [µM] | Structure (SMILES)
33 | CC1(C)OC[C@@H]2O[C@@]3(C(=O)NNS(N)(=O)=O)OC(C)(C)O[C@H]3[C@@H]2O1
> 100 | CC1(C)O[C@@H]2[C@@H](CO[C@@]3(C(=O)NS(N)(=O)=O)OC(C)(C)O[C@@H]23)O1
> 100 | CC1(C)O[C@@H]2[C@@H](CO[C@@]3(C(=O)NNS(N)(=O)=O)OC(C)(C)O[C@@H]23)O1
0.13 | CC1(C)OC[C@@H]2O[C@@]3(COC(=O)NS(N)(=O)=O)OC(C)(C)O[C@H]3[C@@H]2O1
27 | CC1(C)O[C@@H]2O[C@@H](COS(N)(=O)=O)[C@H]3OC(C)(C)O[C@H]3[C@@H]2O1

The remaining lines, values behind:

Structure (SMILES) | Ki [µM]
CC1(C)O[C@H]2[C@@H](O1)[C@@H](C(=O)NNS(N)(=O)=O)O[C@@H]1OC(C)(C)O[C@@H]12 | 30
CC1(C)OC[C@@H]2O[C@@]3(C(=O)NS(N)(=O)=O)OC(C)(C)O[C@H]3[C@@H]2O1 | 0.425
CC1(C)O[C@@H]2[C@@H](CO[C@@]3(COC(=O)NS(N)(=O)=O)OC(C)(C)O[C@@H]23)O1 | 0.045
CC1(C)O[C@@H]2O[C@@H](C(=O)NS(N)(=O)=O)[C@H]3OC(C)(C)O[C@H]3[C@@H]2O1 | 46

molecular target: Carbonic anhydrase 1 (Homo sapiens, UniProt P00915)
Sequence (P00915 whole entry): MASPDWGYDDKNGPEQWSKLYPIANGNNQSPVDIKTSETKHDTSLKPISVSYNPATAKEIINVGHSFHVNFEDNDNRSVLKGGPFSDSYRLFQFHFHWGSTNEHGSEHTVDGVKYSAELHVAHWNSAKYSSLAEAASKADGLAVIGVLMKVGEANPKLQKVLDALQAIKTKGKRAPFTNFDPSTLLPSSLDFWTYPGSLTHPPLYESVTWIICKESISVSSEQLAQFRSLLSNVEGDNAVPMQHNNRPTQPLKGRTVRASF
Description: Inhibitory activity against human cloned carbonic anhydrase I (hCA I)

Ki [µM] | Structure (SMILES)
420 | CC1(C)OC[C@@H]2O[C@@]3(C(=O)NNS(N)(=O)=O)OC(C)(C)O[C@H]3[C@@H]2O1
> 100 | CC1(C)O[C@@H]2[C@@H](CO[C@@]3(C(=O)NS(N)(=O)=O)OC(C)(C)O[C@@H]23)O1
> 100 | CC1(C)O[C@@H]2[C@@H](CO[C@@]3(C(=O)NNS(N)(=O)=O)OC(C)(C)O[C@@H]23)O1
1.2 | CC1(C)OC[C@@H]2O[C@@]3(COC(=O)NS(N)(=O)=O)OC(C)(C)O[C@H]3[C@@H]2O1
400 | CC1(C)O[C@@H]2O[C@@H](COS(N)(=O)=O)[C@H]3OC(C)(C)O[C@H]3[C@@H]2O1

The next lines start with the compound.

Structure (SMILES) | Ki [µM]
CC1(C)O[C@H]2[C@@H](O1)[C@@H](C(=O)NNS(N)(=O)=O)O[C@@H]1OC(C)(C)O[C@@H]12 | > 100
NS(=O)(=O)O [SULFAMATE] | 21
CC1(C)OC[C@@H]2O[C@@]3(C(=O)NS(N)(=O)=O)OC(C)(C)O[C@H]3[C@@H]2O1 | 0.75
CC1(C)O[C@@H]2[C@@H](CO[C@@]3(COC(=O)NS(N)(=O)=O)OC(C)(C)O[C@@H]23)O1 | 0.42
CC1(C)O[C@@H]2O[C@@H](C(=O)NS(N)(=O)=O)[C@H]3OC(C)(C)O[C@H]3[C@@H]2O1 | > 100
